Data: the supplement of paper PMC13207355

Columns and labels:
Details in all cases: exposure time: 72 h
E57 [1] = patient-derived glioblastoma stem cells of mesenchymal subtype; test: phenotypic distance (Euclidean, principal components) from DMSO controls (arbitrary units); higher = stronger morphological change
E21 [2] = patient-derived glioblastoma stem cells of mesenchymal subtype; test: as above
E13 [3] = patient-derived glioblastoma stem cells of classical subtype; test: as above
E31 [4] = patient-derived glioblastoma stem cells of proneural subtype; test: as above
E28 [5] = patient-derived glioblastoma stem cells of classical subtype; test: as above
E34 [6] = patient-derived glioblastoma stem cells of proneural subtype; test: as above
FT3469 [7] = normal neural stem cell line; test: as above
E57 [8] = test: surviving fraction (nuclei count normalised to DMSO); higher = more cells surviving (less toxic)
E21 [9] = test: as above
E13 [10] = test: as above
E31 [11] = test: as above
E28 [12] = test: as above
E34 [13] = test: as above
FT3469 [14] = test: as above
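For phenotypic distance (Euclidean, principal components) from DMSO controls in this document: cell Painting imaging in 384-well plates, CellProfiler features reduced to at least 20 principal components, Euclidean distance versus same-plate DMSO vehicle wells (0.1% v/v), median over six images per well.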
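For surviving fraction (nuclei count normalised to DMSO) in this document: nuclei counted by high-content imaging of Hoechst-stained cells in laminin-coated 384-well plates, relative to 0.1% DMSO vehicle wells, with staurosporine as cell-death control.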

COc1cccc2c(NCc3ccccc3)nc(-n3c(N)nc4ccccc43)nc12 [ML240]
Details	phenotypic distance	surviving fraction
E13 [3], 4.1 nM	0.694	–
E13 [3], 12.3 nM	0.435	–
E13 [3], 37 nM	0.787	–
E13 [3], 111.1 nM	0.753	–
E13 [3], 333.3 nM	0.67	–
E13 [3], 1000 nM	8.35	–
E13 [3], 3000 nM	10.2	–
E13 [10], 4.1 nM	–	1.1
E13 [10], 12.3 nM	–	0.999
E13 [10], 37 nM	–	1.1
E13 [10], 111.1 nM	–	1.02
E13 [10], 333.3 nM	–	0.985
E13 [10], 1000 nM	–	0.147
E13 [10], 3000 nM	–	0.00521
E21 [2], 4.1 nM	0.814	–
E21 [2], 12.3 nM	0.418	–
E21 [2], 37 nM	0.532	–
E21 [2], 111.1 nM	0.655	–
E21 [2], 333.3 nM	0.51	–
E21 [2], 1000 nM	1.08	–
E21 [2], 3000 nM	13.5	–
E21 [9], 4.1 nM	–	1.05
E21 [9], 12.3 nM	–	1.01
E21 [9], 37 nM	–	1.02
E21 [9], 111.1 nM	–	1.1
E21 [9], 333.3 nM	–	1.03
E21 [9], 1000 nM	–	1.11
E21 [9], 3000 nM	–	0.0028
E28 [5], 4.1 nM	0.413	–
E28 [5], 12.3 nM	0.802	–
E28 [5], 37 nM	0.589	–
E28 [5], 111.1 nM	0.977	–
E28 [5], 333.3 nM	0.531	–
E28 [5], 1000 nM	5.33	–
E28 [5], 3000 nM	7.6	–
E28 [12], 4.1 nM	–	1.09
E28 [12], 12.3 nM	–	0.996
E28 [12], 37 nM	–	1.01
E28 [12], 111.1 nM	–	1.17
E28 [12], 333.3 nM	–	1.03
E28 [12], 1000 nM	–	0.32
E28 [12], 3000 nM	–	0.0108
E31 [4], 4.1 nM	0.647	–
E31 [4], 12.3 nM	0.799	–
E31 [4], 37 nM	0.394	–
E31 [4], 111.1 nM	0.491	–
E31 [4], 333.3 nM	0.297	–
E31 [4], 1000 nM	6.73	–
E31 [4], 3000 nM	18.7	–
E31 [11], 4.1 nM	–	0.934
E31 [11], 12.3 nM	–	1.36
E31 [11], 37 nM	–	1.1
E31 [11], 111.1 nM	–	1.17
E31 [11], 333.3 nM	–	1.19
E31 [11], 1000 nM	–	0.0987
E31 [11], 3000 nM	–	0
E34 [6], 4.1 nM	0.596	–
E34 [6], 12.3 nM	0.636	–
E34 [6], 37 nM	0.602	–
E34 [6], 111.1 nM	0.587	–
E34 [6], 333.3 nM	0.358	–
E34 [6], 1000 nM	1.49	–
E34 [6], 3000 nM	14.2	–
E34 [13], 4.1 nM	–	1.18
E34 [13], 12.3 nM	–	1.12
E34 [13], 37 nM	–	1.04
E34 [13], 111.1 nM	–	1.05
E34 [13], 333.3 nM	–	1.18
E34 [13], 1000 nM	–	0.54
E34 [13], 3000 nM	–	0.00732
E57 [1], 4.1 nM	0.375	–
E57 [1], 12.3 nM	0.566	–
E57 [1], 37 nM	0.385	–
E57 [1], 111.1 nM	0.473	–
E57 [1], 333.3 nM	1.84	–
E57 [1], 1000 nM	4.85	–
E57 [1], 3000 nM	6.71	–
E57 [8], 4.1 nM	–	0.984
E57 [8], 12.3 nM	–	0.993
E57 [8], 37 nM	–	1.05
E57 [8], 111.1 nM	–	0.972
E57 [8], 333.3 nM	–	1.08
E57 [8], 1000 nM	–	0.255
E57 [8], 3000 nM	–	0.00471
FT3469 [7], 4.1 nM	0.656	–
FT3469 [7], 12.3 nM	0.706	–
FT3469 [7], 37 nM	0.538	–
FT3469 [7], 111.1 nM	1.16	–
FT3469 [7], 333.3 nM	0.736	–
FT3469 [7], 1000 nM	1.85	–
FT3469 [7], 3000 nM	11.7	–
FT3469 [14], 4.1 nM	–	0.963
FT3469 [14], 12.3 nM	–	1.03
FT3469 [14], 37 nM	–	1.15
FT3469 [14], 111.1 nM	–	1.33
FT3469 [14], 333.3 nM	–	1.25
FT3469 [14], 1000 nM	–	0.68
FT3469 [14], 3000 nM	–	0.00884

O=c1[nH]c(=O)n([C@H]2C[C@H](O)[C@@H](CO)O2)cc1I [Idoxuridine]
Details	phenotypic distance	surviving fraction
E13 [3], 4.1 nM	1.19	–
E13 [3], 12.3 nM	1.08	–
E13 [3], 37 nM	1.53	–
E13 [3], 111.1 nM	0.919	–
E13 [3], 333.3 nM	0.742	–
E13 [3], 1000 nM	1.06	–
E13 [3], 3000 nM	0.576	–
E13 [10], 4.1 nM	–	0.99
E13 [10], 12.3 nM	–	0.847
E13 [10], 37 nM	–	0.893
E13 [10], 111.1 nM	–	0.967
E13 [10], 333.3 nM	–	0.953
E13 [10], 1000 nM	–	1.02
E13 [10], 3000 nM	–	1.06
E21 [2], 4.1 nM	0.811	–
E21 [2], 12.3 nM	1.68	–
E21 [2], 37 nM	1.77	–
E21 [2], 111.1 nM	0.694	–
E21 [2], 333.3 nM	1.11	–
E21 [2], 1000 nM	1.12	–
E21 [2], 3000 nM	1.56	–
E21 [9], 4.1 nM	–	0.958
E21 [9], 12.3 nM	–	0.967
E21 [9], 37 nM	–	1
E21 [9], 111.1 nM	–	0.893
E21 [9], 333.3 nM	–	1.01
E21 [9], 1000 nM	–	0.969
E21 [9], 3000 nM	–	0.986
E28 [5], 4.1 nM	0.822	–
E28 [5], 12.3 nM	0.591	–
E28 [5], 37 nM	0.96	–
E28 [5], 111.1 nM	0.701	–
E28 [5], 333.3 nM	0.922	–
E28 [5], 1000 nM	0.762	–
E28 [5], 3000 nM	1.1	–
E28 [12], 4.1 nM	–	1.11
E28 [12], 12.3 nM	–	0.859
E28 [12], 37 nM	–	1.06
E28 [12], 111.1 nM	–	1.12
E28 [12], 333.3 nM	–	0.97
E28 [12], 1000 nM	–	0.76
E28 [12], 3000 nM	–	0.954
E31 [4], 4.1 nM	1.23	–
E31 [4], 12.3 nM	0.821	–
E31 [4], 37 nM	0.938	–
E31 [4], 111.1 nM	0.814	–
E31 [4], 333.3 nM	0.763	–
E31 [4], 1000 nM	0.973	–
E31 [4], 3000 nM	0.756	–
E31 [11], 4.1 nM	–	0.736
E31 [11], 12.3 nM	–	1.04
E31 [11], 37 nM	–	0.782
E31 [11], 111.1 nM	–	1.15
E31 [11], 333.3 nM	–	0.725
E31 [11], 1000 nM	–	0.982
E31 [11], 3000 nM	–	0.787
E34 [6], 4.1 nM	0.63	–
E34 [6], 12.3 nM	0.803	–
E34 [6], 37 nM	0.845	–
E34 [6], 111.1 nM	0.69	–
E34 [6], 333.3 nM	0.689	–
E34 [6], 1000 nM	0.829	–
E34 [6], 3000 nM	1.45	–
E34 [13], 4.1 nM	–	0.86
E34 [13], 12.3 nM	–	1
E34 [13], 37 nM	–	1.04
E34 [13], 111.1 nM	–	0.92
E34 [13], 333.3 nM	–	1.03
E34 [13], 1000 nM	–	0.959
E34 [13], 3000 nM	–	1.01
E57 [1], 4.1 nM	0.916	–
E57 [1], 12.3 nM	0.612	–
E57 [1], 37 nM	0.986	–
E57 [1], 111.1 nM	1.62	–
E57 [1], 333.3 nM	0.906	–
E57 [1], 1000 nM	1.14	–
E57 [1], 3000 nM	1.5	–
E57 [8], 4.1 nM	–	1.04
E57 [8], 12.3 nM	–	1.02
E57 [8], 37 nM	–	0.958
E57 [8], 111.1 nM	–	0.992
E57 [8], 333.3 nM	–	1.01
E57 [8], 1000 nM	–	0.99
E57 [8], 3000 nM	–	0.867
FT3469 [7], 4.1 nM	0.962	–
FT3469 [7], 12.3 nM	1.15	–
FT3469 [7], 37 nM	0.953	–
FT3469 [7], 111.1 nM	0.541	–
FT3469 [7], 333.3 nM	1.76	–
FT3469 [7], 1000 nM	0.62	–
FT3469 [7], 3000 nM	0.72	–
FT3469 [14], 4.1 nM	–	0.845
FT3469 [14], 12.3 nM	–	1.33
FT3469 [14], 37 nM	–	0.987
FT3469 [14], 111.1 nM	–	0.845
FT3469 [14], 333.3 nM	–	1.18
FT3469 [14], 1000 nM	–	0.86
FT3469 [14], 3000 nM	–	1.07
